Source: US11865100B2, “Method for treatment of rosacea in patients aged 65 years and older” (Sol-Gel Technologies Ltd., priority 2019, dated 2024)

Tests used:
[1] = test system: rosacea; conditions: Gul 2008; BPO as sole active agent; cited from earlier work
[2] = test system: papulopustular rosacea in patients aged 65 years and older; test: Randomized, double-blind, vehicle-controlled 12-week study of E-BPO cream: Investigator Global Assessment (IGA) success rate; format: in vivo, human; conditions: Week 8
Protocol: Description: A randomized, double-blind, multi-center, parallel group, active- and vehicle-controlled study of encapsulated 5% benzoyl peroxide cream (E-BPO) and vehicle cream was performed to assess the efficacy and safety of E-BPO compared to vehicle. Study duration was 12 weeks and included approximately 350 male and female patients afflicted with papulopustular rosacea. 71 patients (about 20%) were at least 65 years of age.
Patients were admitted into the study after meeting all inclusion/exclusion criteria, including a clinical diagnosis of rosacea. Subjects with moderate to severe rosacea who were appropriate for systemic treatment were counseled regarding their treatment options by the Principal Investigator. At each visit, a 5-point IGA scale of rosacea and inflammatory lesion counts were performed and recorded.
Dosing: Patients were randomly organized in a 2:1 ratio to the study product or vehicle treatment group, respectively. Patients applied the study product once daily for 12 weeks on the face in a thin layer to provide even distribution.
Clinical and Safety Evaluations were performed at Baseline and Weeks 2, 4, 8 and 12.
The success rate of the treatment of rosacea (defined as a 2-grade improvement in the IGA relative to Baseline at Weeks 2, 4, […] and 12, with an IGA of Clear or Almost Clear) in patients aged 65 years and older are shown in Table 1 and FIG. 1. […]

Structure (SMILES): O=C(OOC(=O)c1ccccc1)c1ccccc1 [BPO, Benzoyl peroxide]
- Response of rosacea lesions [1]: unresponsive
- Success rate greater than the success rate achieved with vehicle alone (difference drug - vehicle) [2]: 25%
